Series [1] has as its system PPO enzyme (E.C. 1.10.3.1) from banana (Musa sapientum) skin. Nature of the series: test of potential melanogenic substrates of banana PPO (pigment formation vs blank). The series is classed as biochemical. The settings on record: pH 7.
A further series in a line: in vitro. The settings on record: human.
Another series concerns HSV-2. The series can be described thus: microbe, parasite or virus in culture. The series is classed as cell-based. The settings on record: Human alphaherpesvirus 2, HFF, read-out: ACV EC50.
The next series has as its system HSV-1. The series can be described thus: microbe, parasite or virus in culture. The series is classed as cell-based. The note with it: Human alphaherpesvirus 1, HFF, read-out: ACV EC50.
A further series in a line: physchem. The note with it: 30 °C, pH 7, aqueous buffer, thermodynamic from solid.
The subject of series [2] is cultured human foreskin fibroblasts.

Results on 13 compounds are retold here after US8673983B2, “Melanins synthesized chemically or via enzyme catalysis” (priority 2007, dated 2014).

≈ marks a conversion by molar mass, not a printed value. A value given as a limit tells only on which side of the number the result lay.

Regarding 5,6,7 trihydroxyflavanone [Baicalein], the “PPO Substrate” value in series [1] is given as “Y”.

The compound `Nc1nc2c(ncn2COCCO)c(=O)[nH]1` [ACV, Acyclovir] yielded a CC50 in the series “in vitro” of over 100 µg/mL. Also, the EC50 (commonly the midpoint of the concentration-response curve) with HSV-2 amounted to 1.4 µg/mL (≈ 0.00622 mM); with HSV-1 it was 1.1 µg/mL (≈ 0.00488 mM).

As for `O=C1c2ccccc2C(=O)c2c1ccc(O)c2O` [Alizarin, 1,2-dihydroxy-anthraquinone], the “PPO Substrate” value in series [1] was “Y”. The solubility (in general, how much of the substance goes into solution per volume) in the series “physchem” was under 2000 µg/mL.

`O=C(O)C=Cc1ccc(O)c(O)c1` [Caffeic acid, 3,4-dihydroxycinnamic acid] showed a solubility in the series “physchem” of over 2000 µg/mL.

With `O=C(O)Cc1ccc(O)c(O)c1` [DOPAC, 3,4-dihydroxyphenylacetic acid], in the series “physchem”, the solubility is over 2000 µg/mL.

On to `O=c1ccc2cc(O)c(O)cc2o1` [Esculetin, 6,7 Dihydroxvcoumarin], for which the “PPO Substrate” value in series [1] is recorded as “Y”. This compound also gave a solubility in the series “physchem” of under 2000 µg/mL.

In “in vitro”, `Nc1nc(O)c2ncn(COC(CO)CO)c2n1` [GCV, ganciclovir] showed a CC50 of over 100 µg/mL.

Regarding `O=C(O)c1cc(O)c(O)c(O)c1` [Gallic acid, 3,4,5-trihydroxybenzoic acid], the solubility in “physchem” was under 2000 µg/mL.

As to `O=C(O)c1ccc(O)c(O)c1` [Protocatechuric acid, 3,4-dihydroxybenzoic acid], in series [1], the “PPO Substrate” value is listed as “Y”. Moreover, the solubility in the series “physchem” is over 2000 µg/mL.

In turn, `Oc1cccc(O)c1O` [Pyrogallol, 1,2,3-trihydroxvbenzene] showed a solubility in the series “physchem” of under 2000 µg/mL.

In the case of `O=c1c(O)c(-c2ccc(O)c(O)c2)oc2cc(O)cc(O)c12` [Quercetin, 2-(3,4-dihydroxyphenyl)-3,5,7-trihydroxy-4H-1-benzopyran-4-one], the solubility in the series “physchem” was under 2000 µg/mL.

With `NCCc1c[nH]c2ccc(O)cc12` [Serotonin, 5-hydroxytryptamine], the “PPO Substrate” value in series [1] is given as “Y”.

As for Nordihydroguaiuretic acid, the Toxicity result in series [2] was “N”.
